The experiment deals with T1, Full length human recombinant HDAC8 protein (Homo sapiens, UniProt Q9BY41).
T1 construct: Full length human recombinant HDAC8 protein was expressed in baculoviral system; made in house
T1 sequence (Q9BY41 1-377): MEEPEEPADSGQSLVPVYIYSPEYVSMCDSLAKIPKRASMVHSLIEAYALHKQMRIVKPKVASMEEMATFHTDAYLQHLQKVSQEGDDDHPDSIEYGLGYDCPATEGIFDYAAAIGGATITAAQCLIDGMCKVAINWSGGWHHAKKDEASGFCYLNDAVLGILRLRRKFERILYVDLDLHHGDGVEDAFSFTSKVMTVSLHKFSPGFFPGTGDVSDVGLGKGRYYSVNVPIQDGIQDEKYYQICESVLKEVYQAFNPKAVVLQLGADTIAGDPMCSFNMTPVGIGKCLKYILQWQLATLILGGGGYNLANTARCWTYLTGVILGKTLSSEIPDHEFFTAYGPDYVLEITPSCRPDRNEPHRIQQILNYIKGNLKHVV
Nature of the experiment: In vitro histone deacetylase assay: enzymatic HDAC8 assay, electrophoretic mobility shift. Conditions: substrate RHKK(Ac)-NH2, 1 nM enzyme, compounds listed under IC50 range headings. In kind it is biochemical. The essentials:
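Readout was microfluidic mobility-shift separation of deacetylated product from fluorescent RHKK(Ac)-NH2 substrate (2 µM), after reaction with 1 nM recombinant full-length human HDAC8 at 25 °C, pH 7.5, stopped with SDS. Twelve 3-fold-spaced concentrations tested; product/sum ratios normalized to controls and fitted with a 4-parameter model for IC50.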

A value given as a limit tells only on which side of the number the result lay.

We go through 38 molecules from US10508077B2 (FORMA Therapeutics, Inc., priority 2015, dated 2019).

Consider `O=C(/C=C/c1ccccc1N1CCN(c2ccccc2)C1=O)NO` [Example I-302, (E)-N-hydroxy-3-(2-(2-oxo-3-phenylimidazolidin-1-yl)phenyl)acrylamide], for which the IC50 is under 1000 nM.

In the case of `O=C(/C=C/c1ccccc1NC(=O)c1ccnc(N2CCOCC2)c1)NO` [Example I-305, (E)-N-(2-(3-(hydroxyamino)-3-oxoprop-1-en-1-yl)phenyl)-2-morpholinoisonicotinamide], the IC50 was under 1000 nM.

For the molecule `O=C(/C=C/c1ccccc1N1Cc2ccccc2C1=O)NO` [Example I-308, (E)-N-hydroxy-3-(2-(1-oxoisoindolin-2-yl)phenyl)acrylamide], the IC50 was under 1000 nM.

On to `O=C(/C=C/c1ccccc1N1CC2CC1CN2C(=O)Cc1ccc(Cl)cc1)NO` [Example I-316, (E)-3-(2-((1S,4S)-5-(2-(4-chlorophenyl)acetyl)-2,5-diazabicyclo[2.2.1]heptan-2-yl)pheynyl)-N-hydroxyacrylamide], for which the IC50 was under 1000 nM.

Turning to `O=C(/C=C/c1ccccc1N1CCC(NC(=O)c2ccccc2)C1)NO` (centres unmarked) [Example I-318, (E)-N-(1-(2-(3-(hydroxyamino)-3-oxoprop-1-en-1-yl)phenyl)pyrrolidin-3-yl)benzamide], the IC50 is under 1000 nM.

As for `O=C(/C=C/c1ccccc1N1CCN(C(=O)C2(C(F)(F)F)CC2)CC1)NO` [Example I-322, (E)-N-hydroxy-3-(2-(4-(1-(trifluoromethyl)cyclopro-pane-1-carbonyl)piperazin-1-yl)phenyl)acrylamide], the IC50 is under 1000 nM.

In the case of `O=C(/C=C/c1ccccc1N1C[C@@H]2C[C@H]1CN2C(=O)C1(c2ccc(Cl)cc2)CC1)NO` [Example I-329, (E)-3-(2-((1S,4S)-5-(1-(4-chlorophenyl)cyclopropane-1-carbonyl)-2,5-diazabicyclo[2.2.1]heptan-2-yl)phenyl)-N-hydroxyacrylamide], the IC50 is under 1000 nM.

Consider `O=C(/C=C/c1ccccc1NC1CCN(Cc2ccc(F)cc2)C1)NO` (centres unmarked) [Example I-330, (E)-3-(2-((1-(4-fluorobenzyl)pyrrolidin-3-yl)amino)phenyl)-N-hydroxyacrylamide], for which the IC50 is under 1000 nM.

Take `O=C(/C=C/c1ccccc1N1CCC(NC(=O)Cc2ccc(F)cc2)CC1)NO` [Example I-331, (E)-3-(2-(4-(2-(4-fluorophenyl)acetamido)piperidin-1-yl)phenyl)-N-hydroxyacrylamide]: the IC50 was under 1000 nM.

For the molecule `O=C(/C=C/c1ccccc1NC(=O)c1ccccc1)NO` [Example I-506, (E)-N-(2-(3-(hydroxyamino)-3-oxoprop-1-enyl)phenyl)benzamide 2,2,2-trifluoroacetate], the IC50 is under 1000 nM.

`O=C(/C=C/c1ccccc1N1CCN(C(=O)Nc2ccc(OC(F)(F)F)cc2)CC1=O)NO` [Example I-528, (E)-4-(2-(3-(hydroxyamino)-3-oxoprop-1-en-1-yl)phenyl)-3-oxo-N-(4-(trifluoromethoxy)phenyl)piperazine-1-carboxamide]: the IC50 is under 1000 nM.

As to `O=C(/C=C/c1ccccc1N1CCN(C(=O)c2ccc(C(F)(F)F)cc2)CC1=O)NO` [Example I-532, (E)-N-hydroxy-3-(2-(2-oxo-4-(4-(trifluoromethyl)benzoyl)piperazin-1-yl)phenyl)acrylamide], the IC50 is under 1000 nM.

For the molecule `O=C(/C=C/c1ccccc1C(=O)Nc1ccc(-c2ccccc2)c(C(F)(F)F)c1)NO` [II-1], the IC50 is 1000 to 10000 nM.

As for `O=C(/C=C/c1ccccc1C(=O)Nc1ccccc1)NO` [II-2, (E)-2-(3-(hydroxyamino)-3-oxoprop-1-en-1-yl)-N-phenylbenzamide], the IC50 is 1000 to 10000 nM.

For the molecule `CCc1ccc(NC(=O)c2ccccc2/C=C/C(=O)NO)cc1` [II-3, (E)-N-(4-ethylphenyl)-2-(3-(hydroxyamino)-3-oxoprop-1-en-1-yl)benzamide], the IC50 was 1000 to 10000 nM.

`O=C(/C=C/c1ccccc1C(=O)NCC1CCCCC1)NO` [II-4, (E)-N-(cyclohexylmethyl)-2-(3-(hydroxyamino)-3-oxoprop-1-en-1-yl)benzamide]: the IC50 is 1000 to 10000 nM.

As to `COc1ccc(CNC(=O)c2ccccc2/C=C/C(=O)NO)cc1` [II-5, (E)-2-(3-(hydroxyamino)-3-oxoprop-1-en-1-yl)-N-(4-methoxybenzyl)benzamide], the IC50 fell in the range of 1000 to 10000 nM.

As to `O=C(/C=C/c1ccccc1C(=O)NCCc1ccc(F)cc1)NO` [II-6, (E)-N-(4-fluorophenethyl)-2-(3-(hydroxyamino)-3-oxoprop-1-en-1-yl)benzamide], the IC50 is 1000 to 10000 nM.

Take `O=C(/C=C/c1ccccc1C(=O)NCc1ccc(-c2ccccc2)cc1)NO` [II-7, (E)-N-([1,1′-biphenyl]-4-ylmethyl)-2-(3-(hydroxyamino)-3-oxoprop-1-en-1-yl)benzamide]: the IC50 was in the range of 1000 to 10000 nM.

On to `CC(=O)NC1CCN(C(=O)c2ccccc2/C=C/C(=O)NO)CC1` [II-8, (E)-3-(2-(4-acetamidopiperidine-1-carbonyl)phenyl)-N-hydroxyacrylamide], for which the IC50 was 1000 to 10000 nM.

For `O=C(/C=C/c1ccccc1C(=O)N1CCC2(CC1)OCc1ccccc12)NO` [II-9, (E)-3-(2-(3H-spiro[isobenzofuran-1,4′-piperidine]-1′-carbonyl)phenyl)-N-hydroxyacrylamide], the IC50 was 1000 to 10000 nM.

As to `O=C(/C=C/c1ccccc1C(=O)N1CC(N2CCS(=O)(=O)CC2)C1)NO` [II-10, (E)-3-(2-(3-(1,1-dioxidothiomorpholino)azetidine-1-carbonyl)phenyl)-N-hydroxyacrylamide], the IC50 lay in the range of 1000 to 10000 nM.

`COCC1(N(C)C(=O)c2ccccc2/C=C/C(=O)NO)CC1` [II-11, (E)-2-(3-(hydroxyamino)-3-oxoprop-1-en-1-yl)-N-(1-(methoxymethyl)cyclopropyl)-N-methylbenzamide]: the IC50 was 1000 to 10000 nM.

Regarding `O=C(/C=C/c1ccccc1C(=O)N1C2CCC1CC2)NO` [II-12, (E)-3-(2-(7-azabicyclo[2.2.1]heptane-7-carbonyl)phenyl)-N-hydroxyacrylamide], the IC50 lay within 1000 to 10000 nM.

In the case of `O=C(/C=C/c1ccccc1C(=O)NC1CCCCC1)NO` [II-13, (E)-N-cyclohexyl-2-(3-(hydroxyamino)-3-oxoprop-1-en-1-yl)benzamide], the IC50 is under 1000 nM.

For the molecule `CCCCc1ccc(NC(=O)c2ccccc2/C=C/C(=O)NO)cc1` [II-14, (E)-N-(4-butylphenyl)-2-(3-(hydroxyamino)-3-oxoprop-1-en-1-yl)benzamide], the IC50 is under 1000 nM.

In the case of `O=C(/C=C/c1ccccc1C(=O)N1CCCCC1)NO` [II-16, (E)-N-hydroxy-3-(2-(piperidine-1-carbonyl)phenyl)acrylamide], the IC50 is under 1000 nM.

For the molecule `O=C(/C=C/c1ccccc1C(=O)N1CCC(F)(F)CC1)NO` [II-17, (E)-3-(2-(4,4-difluoropiperidine-1-carbonyl)phenyl)-N-hydroxyacrylamide], the IC50 was under 1000 nM.

Consider `CN(Cc1cccc(C(F)(F)F)c1)C(=O)c1ccccc1/C=C/C(=O)NO` [II-18], for which the IC50 is under 1000 nM.

As to `O=C(/C=C/c1ccccc1C(=O)N1CCN(c2ccccc2)CC1)NO` [II-19, (E)-N-hydroxy-3-(2-(4-phenylpiperazine-1-carbonyl)phenyl)acrylamide], the IC50 was under 1000 nM.

As for `O=C(/C=C/c1ccccc1C(=O)N1CCN(c2ccncc2)CC1)NO` [II-20], the IC50 was under 1000 nM.

As to `O=C(/C=C/c1ccccc1C(=O)N1CCN(CCc2ccccc2)CC1)NO` [II-21, (E)-N-hydroxy-3-(2-(4-phenethylpiperazine-1-carbonyl)phenyl)acrylamide], the half-inhibitory concentration (IC50) was under 1000 nM.

In the case of `O=C(/C=C/c1ccccc1C(=O)N1CCC(C(F)(F)F)CC1)NO` [II-23, (E)-N-hydroxy-3-(2-(4-(trifluoromethyl)piperidine-1-carbonyl)phenyl)acrylamide], the IC50 is under 1000 nM.

For `O=C(/C=C/c1ccccc1C(=O)N1CCS(=O)(=O)CC1)NO` [II-24, (E)-3-(2-(1,1-dioxidothiomorpholine-4-carbonyl)phenyl)-N-hydroxyacrylamide], the IC50 is under 1000 nM.

Regarding `Cn1cc2c(n1)CCN(C(=O)c1ccccc1/C=C/C(=O)NO)C2` [II-25, (E)-N-hydroxy-3-(2-(2-methyl-4,5,6,7-tetrahydro-2H-pyrazolo[4,3-c]pyridine-5-carbonyl)phenyl)acrylamide], the IC50 is under 1000 nM.

For the molecule `Cc1nnc(C)n1C1CCN(C(=O)c2ccccc2/C=C/C(=O)NO)CC1` [II-26, (E)-3-(2-(4-(3,5-dimethyl-4H-1,2,4-triazol-4-yl)piperidine-1-carbonyl)phenyl)-N-hydroxyacrylamide], the IC50 is under 1000 nM.

`O=C(/C=C/c1ccccc1S(=O)(=O)C1CCN(Cc2ccccc2)CC1)NO` [II-30, (E)-3-(2-((1-benzylpiperidin-4-yl)sulfonyl)phenyl)-N-hydroxyacrylamide]: the IC50 was under 1000 nM.

For the molecule `O=C(/C=C/c1ccccc1C(=O)Nc1cccc(C(F)(F)F)c1)NO` [II-36, (E)-2-(3-(hydroxyamino)-3-oxoprop-1-en-1-yl)-N-(3-(trifluoromethyl)phenyl)benzamide], the IC50 was under 1000 nM.
